Literature values, collected in paper PMC8288134, “Synthesis, potential antitumor activity, cell cycle analysis, and multitarget mechanisms of novel hydrazones incorporating a 4-methylsulfonylbenzene scaffold: a molecular docking study” (Journal of Enzyme Inhibition and Medicinal Chemistry, 2021).

Legend:
CCRF-CEM = tested on: CCRF-CEM; design: method as in https://dtp.cancer.gov/dtpstandard/dwindex/index.jsp; details: reference drugs, ref https://dtp.cancer.gov/dtpstandard/dwindex/index.jsp; cited from earlier work
PRMI-8226 = tested on: PRMI-8226; design: method as in https://dtp.cancer.gov/dtpstandard/dwindex/index.jsp; details: reference drugs, ref https://dtp.cancer.gov/dtpstandard/dwindex/index.jsp; cited from earlier work
HOP-62 = tested on: HOP-62; design: method as in https://dtp.cancer.gov/dtpstandard/dwindex/index.jsp; details: reference drugs, ref https://dtp.cancer.gov/dtpstandard/dwindex/index.jsp; cited from earlier work
COLO 205 = tested on: COLO 205; design: method as in https://dtp.cancer.gov/dtpstandard/dwindex/index.jsp; details: reference drugs, ref https://dtp.cancer.gov/dtpstandard/dwindex/index.jsp; cited from earlier work
HCC-2998 = tested on: HCC-2998; design: method as in https://dtp.cancer.gov/dtpstandard/dwindex/index.jsp; details: reference drugs, ref https://dtp.cancer.gov/dtpstandard/dwindex/index.jsp; cited from earlier work
HCT-15 = tested on: HCT-15; design: method as in https://dtp.cancer.gov/dtpstandard/dwindex/index.jsp; details: reference drugs, ref https://dtp.cancer.gov/dtpstandard/dwindex/index.jsp; cited from earlier work
SW-620 = tested on: SW-620; design: method as in https://dtp.cancer.gov/dtpstandard/dwindex/index.jsp; details: reference drugs, ref https://dtp.cancer.gov/dtpstandard/dwindex/index.jsp; cited from earlier work
SF-268 = tested on: SF-268; design: method as in https://dtp.cancer.gov/dtpstandard/dwindex/index.jsp; details: reference drugs, ref https://dtp.cancer.gov/dtpstandard/dwindex/index.jsp; cited from earlier work
SF-295 = tested on: SF-295; design: method as in https://dtp.cancer.gov/dtpstandard/dwindex/index.jsp; details: reference drugs, ref https://dtp.cancer.gov/dtpstandard/dwindex/index.jsp; cited from earlier work
SF-539 = tested on: SF-539; design: method as in https://dtp.cancer.gov/dtpstandard/dwindex/index.jsp; details: reference drugs, ref https://dtp.cancer.gov/dtpstandard/dwindex/index.jsp; cited from earlier work
U251 = tested on: U251; design: method as in https://dtp.cancer.gov/dtpstandard/dwindex/index.jsp; details: reference drugs, ref https://dtp.cancer.gov/dtpstandard/dwindex/index.jsp; cited from earlier work
SK-MEL-2 = tested on: SK-MEL-2; design: method as in https://dtp.cancer.gov/dtpstandard/dwindex/index.jsp; details: reference drugs, ref https://dtp.cancer.gov/dtpstandard/dwindex/index.jsp; cited from earlier work
SK-MEL-28 = tested on: SK-MEL-28; design: method as in https://dtp.cancer.gov/dtpstandard/dwindex/index.jsp; details: reference drugs, ref https://dtp.cancer.gov/dtpstandard/dwindex/index.jsp; cited from earlier work
UACC-257 = tested on: UACC-257; design: method as in https://dtp.cancer.gov/dtpstandard/dwindex/index.jsp; details: reference drugs, ref https://dtp.cancer.gov/dtpstandard/dwindex/index.jsp; cited from earlier work
UACC-62 = tested on: UACC-62; design: method as in https://dtp.cancer.gov/dtpstandard/dwindex/index.jsp; details: reference drugs, ref https://dtp.cancer.gov/dtpstandard/dwindex/index.jsp; cited from earlier work
OVCAR-5 = tested on: OVCAR-5; design: method as in https://dtp.cancer.gov/dtpstandard/dwindex/index.jsp; details: reference drugs, ref https://dtp.cancer.gov/dtpstandard/dwindex/index.jsp; cited from earlier work
A498 = tested on: A498; design: method as in https://dtp.cancer.gov/dtpstandard/dwindex/index.jsp; details: reference drugs, ref https://dtp.cancer.gov/dtpstandard/dwindex/index.jsp; cited from earlier work
RXF 393 = tested on: RXF 393; design: method as in https://dtp.cancer.gov/dtpstandard/dwindex/index.jsp; details: reference drugs, ref https://dtp.cancer.gov/dtpstandard/dwindex/index.jsp; cited from earlier work
SN12C = tested on: SN12C; design: method as in https://dtp.cancer.gov/dtpstandard/dwindex/index.jsp; details: reference drugs, ref https://dtp.cancer.gov/dtpstandard/dwindex/index.jsp; cited from earlier work
UO-31 = tested on: UO-31; design: method as in https://dtp.cancer.gov/dtpstandard/dwindex/index.jsp; details: reference drugs, ref https://dtp.cancer.gov/dtpstandard/dwindex/index.jsp; cited from earlier work
DU-145 = tested on: DU-145; design: method as in https://dtp.cancer.gov/dtpstandard/dwindex/index.jsp; details: reference drugs, ref https://dtp.cancer.gov/dtpstandard/dwindex/index.jsp; cited from earlier work
MDA-MB-231/ATCC = tested on: MDA-MB-231/ATCC; design: method as in https://dtp.cancer.gov/dtpstandard/dwindex/index.jsp; details: reference drugs, ref https://dtp.cancer.gov/dtpstandard/dwindex/index.jsp; cited from earlier work
HS 578 T = tested on: HS 578 T; design: method as in https://dtp.cancer.gov/dtpstandard/dwindex/index.jsp; details: reference drugs, ref https://dtp.cancer.gov/dtpstandard/dwindex/index.jsp; cited from earlier work
[1] = tested on: colon cancer tumour cell lines; details: cited from earlier work; for GI50: read-out: GI50 (subpanel average), reference drugs, ref https://dtp.cancer.gov/dtpstandard/dwindex/index.jsp; for CC50: read-out: LC50 (subpanel average), reference drugs, ref https://dtp.cancer.gov/dtpstandard/dwindex/index.jsp; for TGI (subpanel average): reference drugs, ref https://dtp.cancer.gov/dtpstandard/dwindex/index.jsp
[2] = tested on: melanoma tumour cell lines; details: cited from earlier work; for GI50: read-out: GI50 (subpanel average), reference drugs, ref https://dtp.cancer.gov/dtpstandard/dwindex/index.jsp; for CC50: read-out: LC50 (subpanel average), reference drugs, ref https://dtp.cancer.gov/dtpstandard/dwindex/index.jsp; for TGI (subpanel average): reference drugs, ref https://dtp.cancer.gov/dtpstandard/dwindex/index.jsp

| Compound | GI50 (CCRF-CEM) | GI50 (PRMI-8226) | GI50 (HOP-62) | GI50 (COLO 205) | GI50 (HCC-2998) | GI50 (HCT-15) | GI50 (SW-620) | GI50 (SF-268) | GI50 (SF-295) | GI50 (SF-539) | GI50 (U251) | GI50 (SK-MEL-2) | GI50 (SK-MEL-28) | GI50 (UACC-257) | GI50 (UACC-62) | GI50 (OVCAR-5) | GI50 (A498) | GI50 (RXF 393) | GI50 (SN12C) | GI50 (UO-31) | also measured |
| --- | --- | --- | --- | --- | --- | --- | --- | --- | --- | --- | --- | --- | --- | --- | --- | --- | --- | --- | --- | --- | --- |
| Cc1ccc(-c2cc(C(F)(F)F)nn2-c2ccc(S(N)(=O)=O)cc2)cc1 [Celecoxib, celecoxib] | 12.6 µM | 3.98 µM | 63.1 µM | 15.8 µM | 15.8 µM | 15.8 µM | 15.8 µM | 15.8 µM | 15.8 µM | 19.9 µM | 15.8 µM | 15.8 µM | 15.8 µM | 19.9 µM | 15.8 µM | 19.9 µM | 15.8 µM | 15.8 µM | 15.8 µM | 15.8 µM | GI50 (DU-145): 15.8 µM; GI50 (MDA-MB-231/ATCC): 15.8 µM; GI50 (HS 578 T): 19.9 µM; GI50 [1]: 20.7 µM; CC50 [1]: 66.5 µM; TGI (subpanel average) [1]: 41.39 µM; GI50 [2]: 22.5 µM; CC50 [2]: 64.3 µM; TGI (subpanel average) [2]: 38.49 µM |
| C#Cc1cccc(Nc2ncnc3cc(OCCOC)c(OCCOC)cc23)c1 [Erlotinib, erlotinib] | 50.1 µM | 25.1 µM | 15.8 µM | 50.1 µM | 79.4 µM | 3.98 µM | 79.4 µM | 15.8 µM | 15.8 µM | 19.9 µM | 25.1 µM | 6.31 µM | 50.1 µM | 100 µM | 3.16 µM | 7.94 µM | 2.51 µM | 3.98 µM | 1.58 µM | 1 µM | GI50 (DU-145): 1.99 µM; GI50 (MDA-MB-231/ATCC): 6.31 µM; GI50 (HS 578 T): 6.31 µM; GI50 [1]: 51.7 µM; CC50 [1]: > 100 µM; TGI (subpanel average) [1]: c (Compounds showed values ≥ 100 µM); GI50 [2]: 23.7 µM; CC50 [2]: 93.3 µM; TGI (subpanel average) [2]: 77.89 µM |
| CS(=O)(=O)c1ccc(C(=O)Nc2ccc(Cl)c(-c3ccccn3)c2)c(Cl)c1 [Vismodegib, vismodegib] | 31.6 µM | 31.6 µM | 79.4 µM | 39.8 µM | 39.8 µM | 31.6 µM | 63.1 µM | 39.8 µM | 31.6 µM | 50.1 µM | 50.1 µM | 39.8 µM | 39.8 µM | 50.1 µM | 31.6 µM | 100 µM | 31.6 µM | 25.1 µM | 39.8 µM | 31.6 µM | GI50 (DU-145): 50.1 µM; GI50 (MDA-MB-231/ATCC): 19.9 µM; GI50 (HS 578 T): 79.4 µM |
